Test results taken from the supplement of paper PMC12592484.

Legend:
Experiment in all cases: drug sensitivity score (DSS2, normalised partial AUC of dose-response, 72 h CellTiter-Glo viability) (DSS (dimensionless)); higher = more sensitive (stronger growth inhibition / cytotoxicity); extreme values may be limits of the assay
[1] = system: 22Rv1
How it was run: (§1)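 Cells were added to 384-well plates already holding compounds at five doses over a 10,000-fold range: low-passage primary prostate cancer-associated fibroblasts, PF179T, WPMY-1, LNCaP and 22Rv1. Viability was measured 72 h later by CellTiter-Glo 2.0 luminescence and scaled to vehicle and positive-control wells. The drug sensitivity score, computed in BREEZE, is a partial area under the fitted logistic dose–response curve divided by the log of its upper asymptote, with higher scores meaning greater sensitivity.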

[2] = system: CAF#7 (primary prostate cancer-associated fibroblasts of myCAF-like type)
How it was run: as §1

[3] = system: CAF#1 (primary prostate cancer-associated fibroblasts of myCAF-like type)
How it was run: as §1

[4] = system: CAF#5 (primary prostate cancer-associated fibroblasts of myCAF-like type)
How it was run: as §1

[5] = system: LNCAP
How it was run: as §1

[6] = system: PF179T
How it was run: as §1

[7] = system: CAF#2 (primary prostate cancer-associated fibroblasts of iCAF-like type)
How it was run: as §1

[8] = system: WPMY-1
How it was run: as §1

[9] = system: CAF#4 (primary prostate cancer-associated fibroblasts of iCAF-like type)
How it was run: as §1

[10] = system: CAF#6 (primary prostate cancer-associated fibroblasts of iCAF-like type)
How it was run: as §1

[11] = system: CAF#3 (primary prostate cancer-associated fibroblasts of myCAF-like type)
How it was run: as §1

Row | SMILES | drug sensitivity score [1] | drug sensitivity score [2] | drug sensitivity score [3] | drug sensitivity score [4] | drug sensitivity score [5] | drug sensitivity score [6] | drug sensitivity score [7] | drug sensitivity score [8] | drug sensitivity score [9] | drug sensitivity score [10] | drug sensitivity score [11]
1 | Cn1cc(C2=C(c3cn(C4CCN(Cc5ccccn5)CC4)c4ccccc34)C(=O)NC2=O)c2ccccc21 [Enzastaurin] (tested concentration range 1-10000 nM) | 4.2 | 0 | 0 | 0 | 4.7 | 2.3 | 2.1 | 5.2 | 1.1 | 1.1 | 0
2 | CCCCNc1ncc(C(=O)NCc2ccc(-n3ccnc3)cc2)c(NC2CCC(O)CC2)n1 (stereo not given) [UNC2881] (tested concentration range 0.2-2500 nM) | 0 | 4.8 | 0.7 | 0.1 | 1.5 | 0 | 0.1 | 0 | 0.7 | 2 | 2.6
3 | CC[C@H](NC(=O)[C@H](C)NC)C(=O)N1C[C@@H](O)C[C@H]1Cc1c(-c2[nH]c3cc(F)ccc3c2C[C@@H]2C[C@H](O)CN2C(=O)[C@H](CC)NC(=O)[C@H](C)NC)[nH]c2cc(F)ccc12 [Birinapant] (tested concentration range 0.1-1000 nM) | 0 | 0 | 0 | 0 | 0.1 | 0 | 0 | 0 | 0 | 0.8 | 0
4 | CC(=O)Nc1ccc(C(=O)Nc2ccccc2N)cc1 [Tacedinaline] (tested concentration range 0.1-1000 nM) | 0.1 | 0.6 | 1.8 | 2.5 | 0.6 | 0.9 | 2.3 | 0 | 0.5 | 0 | 3.3
5 | CC1(C)CCC(CN2CCN(c3ccc(C(=O)NS(=O)(=O)c4ccc(NCC5CCOCC5)c([N+](=O)[O-])c4)c(Oc4cnc5[nH]ccc5c4)c3)CC2)=C(c2ccc(Cl)cc2)C1 [Venetoclax] (tested concentration range 0.1-1000 nM) | 0 | 0 | 0 | 0 | 0 | 0 | 0 | 0 | 0 | 0 | 0
6 | O=S(=O)(c1cccc2c(O)nccc12)N1CCCNCC1 [Hydroxyfasudil] (tested concentration range 1.9-19000 nM) | 0 | 0 | 0 | 0 | 0 | 0 | 0 | 0.3 | 0 | 0 | 0
7 | CCS(=O)(=O)N1CCN(c2ccc(Nc3ncc(C(N)=O)c(NC4CC4)n3)cc2)CC1 [Cerdulatinib] (tested concentration range 1-10000 nM) | 0 | 0.1 | 6.1 | 3.8 | 4.4 | 2.7 | 3.7 | 8.8 | 0 | 0.4 | 0
8 | NC(=S)N/N=C/c1ncccc1N [Triapine] (tested concentration range 1-10000 nM) | 4 | 0.8 | 0 | 1.3 | 3.2 | 2.2 | 3.3 | 4.9 | 0 | 1 | 0.6
9 | CN1CCN(c2ccc(C(=O)Nc3n[nH]c4ccc(Cc5cc(F)cc(F)c5)cc34)c(NC3CCOCC3)c2)CC1 [Entrectinib] (tested concentration range 0.1-1000 nM) | 1.1 | 2.1 | 1.3 | 0.8 | 1 | 1 | 1.9 | 0.9 | 0 | 0.7 | 2.1
10 | Nc1cccc2c1C(=O)N(C1CCC(=O)NC1=O)C2=O (stereo not given) [Pomalidomide] (tested concentration range 1-10000 nM) | 0 | 0 | 0 | 0 | 0 | 0 | 0 | 0 | 0 | 0 | 0
11 | COC(=O)C[C@](O)(CCCC(C)(C)O)C(=O)O[C@@H]1C(OC)=C[C@]23CCCN2CCc2cc4c(cc2[C@H]13)OCO4 [Omacetaxine] (tested concentration range 1-10000 nM) | 35 | 21.4 | 19.1 | 18.7 | 29.2 | 22 | 21.9 | 25.2 | 15.3 | 20 | 20.6
12 | COc1cc(C)c(/C=C/C(C)=C/C=C/C(C)=C/C(=O)O)c(C)c1C [Acitretin] (tested concentration range 1-10000 nM) | 0 | 0 | 1.7 | 0.8 | 0 | 6.3 | 4 | 0 | 0.1 | 0.4 | 0.2
13 | COc1cccc2c1C(=O)c1c(O)c3c(c(O)c1C2=O)C[C@@](O)(C(=O)CO)C[C@@H]3O[C@H]1C[C@H](N)[C@H](O)[C@H](C)O1 [Doxorubicin] (tested concentration range 0.1-1000 nM) | 12.2 | 0 | 6.5 | 6.7 | 0 | 7.5 | 7.8 | 9.8 | 2.6 | 0 | 0
14 | O=C(/C=C\n1cnc(-c2cc(C(F)(F)F)cc(C(F)(F)F)c2)n1)NNc1cnccn1 [Selinexor] (tested concentration range 1-10000 nM) | 30.5 | 11.9 | 16.5 | 14.6 | 26.2 | 16.4 | 21.3 | 27.4 | 17.8 | 11.7 | 9.9
15 | CC(C)C[C@H](NC(=O)[C@H](Cc1ccccc1)NC(=O)c1cnccn1)B(O)O [Bortezomib] (tested concentration range 0.1-1000 nM) | 24.9 | 24.3 | 23.9 | 28.1 | 28.8 | 20.9 | 30.1 | 30.6 | 20 | 23.7 | 26.9
16 | O=C(c1cc(Cc2n[nH]c(=O)c3ccccc23)ccc1F)N1CCN(C(=O)C2CC2)CC1 [Olaparib] (tested concentration range 1-10000 nM) | 5.8 | 4.1 | 3.8 | 4.5 | 4.4 | 6.4 | 4.7 | 4.5 | 6.8 | 3.5 | 3
17 | Cc1cc(F)c(C(=O)Nc2cccc(-c3nncn3C(C)C)n2)cc1-n1cnc(C2CC2)c1 [Selonsertib] (tested concentration range 0.1-1000 nM) | 0 | 0 | 0 | 0 | 1.4 | 0 | 0 | 0 | 0 | 0 | 0
18 | N#CC(c1ccnc(OCc2ccc(CN3CCOCC3)cc2)n1)c1nc2ccccc2s1 (stereo not given) [Bentamapimod] (tested concentration range 1-10000 nM) | 1.8 | 0 | 1.7 | 0 | 5.2 | 0 | 2.6 | 2.8 | 3.4 | 0 | 0
19 | Cc1ncc(Cl)cc1NCc1ccc(C(=O)N[C@@H](CC2CCCC2)C(=O)NC2CC2)s1 (tested concentration range 0.5-5000 nM) | 0 | 1.2 | 0 | 2.1 | 2 | 3.7 | 3 | 0 | 0.6 | 0 | 0.4
20 | CN1CCN(CCOc2cc(OC3CCOCC3)c3c(Nc4c(Cl)ccc5c4OCO5)ncnc3c2)CC1 [Saracatinib] (tested concentration range 1-10000 nM) | 4.3 | 5.8 | 7.7 | 8.2 | 6.4 | 5.5 | 7.7 | 5.4 | 6.7 | 6.6 | 10.1
21 | Cc1cccc(CC(=O)N2CCc3c2ccc(-c2cn(C)c4ncnc(N)c24)c3F)n1 (tested concentration range 0.2-2500 nM) | 0.1 | 0 | 0 | 0 | 0.7 | 0 | 0 | 0 | 0 | 0 | 0
22 | C=CC(=O)Nc1cc(Nc2nccc(-c3cn(C)c4ccccc34)n2)c(OC)cc1N(C)CCN(C)C [Osimertinib] (tested concentration range 0.2-2500 nM) | 5.9 | 4.2 | 3.4 | 4.8 | 6.4 | 1.9 | 5 | 4.6 | 3.7 | 3 | 5.4
23 | CC1(C)CC[C@]2(NC(=O)C(C)(F)F)CC[C@]3(C)[C@H](C(=O)C=C4[C@@]5(C)C=C(C#N)C(=O)C(C)(C)[C@@H]5CC[C@]43C)[C@@H]2C1 [Omaveloxolone] (tested concentration range 1-10000 nM) | 14.4 | 4.8 | 19.8 | 18.5 | 23.9 | 14.8 | 23.2 | 18.4 | 17 | 5.3 | 4.6
24 | Cn1nnc2c(C(N)=O)ncn2c1=O [Temozolomide] (tested concentration range 10-100000 nM) | 0 | 0 | 0 | 0 | 0 | 0 | 0 | 0 | 0 | 0 | 0
25 | O[C@H]1CC[C@H](Nc2ncc3nc(Nc4c(F)cc(F)cc4F)n([C@H]4CCOC4)c3n2)CC1 [Tanzisertib] (tested concentration range 1-10000 nM) | 0 | 0 | 0 | 0 | 1.3 | 0 | 0 | 0 | 0 | 0.2 | 3.3
